“Also recorded” adds a separate entry of the source.
Tests used:
[1] = test system: CVS; settings: cited from earlier work
[2] = test system: CVS and ischemia; settings: intrathecal, local or intraventricular application; humans or laboratory animal; cited from earlier work
[3] = test system: patients with SAH after aneurysmal rupture; test: CVS detected by TCD (trans-cranial doppler); format: in vivo, human
Excerpt: TCD (trans-cranial doppler) is a diagnostic procedure using ultrasound waves to measure blood flow through the major blood vessels of the brain. In particular, the purpose of this test is to detect any narrowing or blockage in arteries located at the base of the brain that may decrease or stop the flow of blood to the brain and increase blood flow velocities according to narrowed vessel diameter. The test is most useful at detecting decreased blood flow through narrow areas inside blood vessels. TCDs are especially useful for monitoring blood flow in the brain of stroke patients who are affected by brain swelling and vasospasm (which are cerebral blood vessel spasms).
The treatment with Molsidomine was applied if vasospasm was detected by TCD (mean flow […] resp. Lindegaard-Index >3) or DSA (narrowing of vessel diameter >50%).

[4] = test system: patients with SAH after aneurysmal rupture; test: Spasm (CVS) related brain infarcts on CCT in SAH patients, Molsidomine in addition to standard therapy vs standard Nimodipine therapy; format: in vivo, human
Method: CCT at the beginning and after treatment were analyzed independently by two experienced neuroradiologists and were scanned for development of delayed brain infarction. At least three months after discharge a modified NIH-SS and a modified Rankin Scale (mRS) for clinical follow up was assessed. 83 patients admitted to the Intensive Care Unit of the University Hospital of Munster, Germany, after spontaneous aneurysmal SAH were registered in an observational study. […] These patients were excluded from further evaluation. […] Out of 76 individuals 27 patients received Molsidomine i.v. in an individually up-titrated dosage with a target quantity of 3.5-10 mg/h dependent on systemic circulation reactions. […] Within 24 h after admission to the ICU patients were treated with coil embolization and/or clipping. […] Appearance of CVS. Male and female patients with an age of 18 years and written informed consent for the additional application of Molsidomine. Spontaneous SAH after aneurysmal rupture and a clinical stage of Hunt and Hess grade Ito V. Exclusion criteria for patients were: No detected CVS. […] CCT and DSA images were independently reported by two experienced neuroradiologists for infarction and vasospasm. CVS related infarcts were diagnosed if hypodense lesions could be detected 72 h or later after therapeutic intervention or operation in comparison to the 24 h control CCT scan and being accompanied by clinical deterioration due to CVS or positive Doppler ultrasound or CVS in DSA.

[5] = after oral administration; cited from earlier work
[6] = test system: patients with SAH after aneurysmal rupture; test: Side effects and monitoring of blood pressure (MAP), ICP and blood under Molsidomine i.v.
Method: In both groups blood pressure, intracranial pressure (ICP) and saturation measurement of blood oxygen were observed continuously. TCD was performed daily or on demand with investigation of the internal carotid artery (ACI), medial cerebral artery (MCA), anterior cerebral artery (ACA) and basilar artery (BA). For monitoring the clinical condition the GCS score (Glasgow Coma Score) was determined per hour
The drug used contains Molsidomine, as supplied by Sanofi-Aventis, Germany, in ampullae with 2 mg/molsidomine (Corvaton®). The dosage of Molsidomine was adapted to the systemic blood pressure.
The dosage was reduced if the MAP dropped below 65 mmHg despite infusion therapy (HES 6-10%) or a mild Arterenol® therapy (max dosage Arterenol® 0.1-0.2 μg/h, preferably at a dose of 0.1-0.3 mg/h or a dose of 0.1-0.2 μg/kg/min.). With increased need for Arterenol® the dosage of Molsidomine was reduced accordingly. Patients with cardiac low-output failure induced by preexistent cardiac failure, stop of perfusion during acute SAH itself or other reasons like sepsis received Molsidomine up-titrated in highest possible amount based on cardiac treatment or the treatment was interrupted for maximal 48 hours if Arterenol®-dosage escalated.
The treatment with Molsidimine was continued (either i.v. or subsequent orally 4×8 mg ret.) until mean flows in TCD were normalized. The duration of Molsodomine application was at least 8 days according to inclusion criteria: Appearance or presence of detectable CVS.

[7] = test system: patients with SAH after aneurysmal rupture; test: Clinical outcome by modified NIH-SS and modified Rankin Scale at least three months after discharge; format: in vivo, human
Excerpt: The National Institutes of Health stroke scale (NIH-SS) is a graded neurological examination that assesses speech, language cognition, inattention, visual field abnormalities, motor and sensory impairments, and ataxia. The scale was developed for use in acute-stroke therapy trials and has since been widely used as a standard part of the assessment in clinical trials. This scale, along with many others, has been evaluated in its clinical usefulness in the assessment of the stroke patient. The NIH-SS permits a high-resolution evaluation of a patient's neurological status. To obtain the finding on the NIH-SS, various neurological aspects are investigated and assigned point scores. The total point score is a measure of the severity of the symptoms of stroke, the point score increasing with the severity of the symptoms. This rating scale is also suitable for monitoring the course of the symptoms after stroke and for quantifying the success of any treatment used. In general, it is possible to establish a correlation between the size of the infarct and the severity of the stroke as quantified by the stroke scale.
Rating scales such as the NIH-SS or the modified Rankin scale are generally used for the quantitative evaluation of the severity of a cerebral disorder, whether acute or under treatment.
CCT at the beginning and after treatment were analyzed independently by two experienced neuroradiologists and were scanned for development of delayed brain infarction. At least three months after discharge a modified NIH-SS and a modified Rankin Scale (mRS) for clinical follow up was assessed.
83 patients admitted to the Intensive Care Unit of the University Hospital of Munster, Germany, after spontaneous aneurysmal SAH were registered in an observational study. Seven patients died in the first 124 hours after admission, without detected CVS probably related to malignant brain edema and severity of initial SAH. These patients were excluded from further evaluation.
Out of 76 individuals 27 patients received Molsidomine i.v. in an individually up-titrated dosage with a target quantity of 3.5-10 mg/h dependent on systemic circulation reactions. The remaining 49 patients received standard therapy.
After a minimum of three months the modified NIH and modified Rankin status were determined in order to control clinical outcome of patients (NIH-SS and mRS).

[8] = test system: patients after brain hemorrhage, in particular SAH; settings: under Nimodipine therapy; cited from earlier work
[9] = test system: rat cerebral arterioles and venules; settings: He-Ne laser; cited from earlier work
[10] = in vivo; cited from earlier work
[11] = test system: SAH group; settings: administered 48 hours after SAH was induced; cited from earlier work
[12] = test system: spontaneously hypertensive rats (SHRs); settings: cited from earlier work
[13] = infusion 3 min after MCA occlusion

COc1ccccc1Oc1c(NS(=O)(=O)c2ccc(C)cn2)nc(-c2ccnc(-c3nnn[nH]3)c2)nc1OCCO [Clazosentan]
treatment of CVS ([1]; in vivo): highly efficiency for the treatment of CVS
long-term outcome or clinical benefit ([1]; multicenter study): failed to show any effect on long-term outcome or clinical benefit

O=[N+]([O-])OCC(CO[N+](=O)[O-])O[N+](=O)[O-] [GTN, nitroglycerin]
effect on CVS and ischemia [2]: good prophylactic effect on CVS and ischemia

CCOC(=O)[N-]c1c[n+](N2CCOCC2)no1 [Molsidomine, N-ethoxycarbonyl-3-morpholinosydnonimine]
effect in terminating CVS ([3]; judged from equal number of intra-arterial Nimodipine treatments per individual): weak effect
TCD-values (flow velocities) ([3]; under Molsidomine treatment): trend in Transcranial Doppeler (TCD)-values towards normal velocities
Spasmus related infarcts, Infarction (number of patients) ([4]; Hunt & Hess grade III°): 1
Spasmus related infarcts, Infarction (number of patients) ([4]; Hunt & Hess grade II°): 0
Spasmus related infarcts, Infarction (number of patients) ([4]; Hunt & Hess grade IV°): 1
Spasmus related infarcts, Infarction (number of patients) ([4]; Hunt & Hess grade I°): 1
Spasmus related infarcts, Infarction (number of patients) ([4]; Hunt & Hess grade V°): 0
patients who developed CVS associated infarcts (share of group) ([4]; all Hunt & Hess grades): 11.1%
patients who developed vasospasm associated brain infarctions / patients of the group ([4]; all Hunt & Hess grades): 3/27
patients who developed CVS associated infarcts (number) ([4]; all Hunt & Hess grades, groups of 49 (Nimodipine) and 27 (Molsidomine)): 3
absorption [5]: completely absorbed
adverse / side effects ([6]; Molsidomine i.v., target 3.5-10 mg/h): No adverse side effects were observed; also recorded: did not show any relevant side effects; also recorded: no serious, untreatable (i.e. severe hypotension) adverse effects were observed
depression of MAP, maximum ([6]; even with higher dosage): ≤ 10 mmHg
depression of blood pressure (systolic) ([6]; even with higher dosage): 10-20 mmHg
effect of fast reduction of dosage ([6]; regredient after increased Molsidomine levels): on/off phenomena or a rebound
Blood stains ([6]; under Molsidomine): normal
ICP ([6]; under Molsidomine): did not increase for short or longer periods
MAP kept ([6]; under Molsidomine): 65-70 mmHg
Mean NIH >3 months (without deaths) ([7]; Hunt & Hess grade III°): 3.62
Mean mRS >3 months ([7]; Hunt & Hess grade III°): 1.75
Mean NIH >3 months (without deaths) ([7]; Hunt & Hess grade II°): 1
Mean mRS >3 months ([7]; Hunt & Hess grade II°): 1
Mean NIH >3 months (without deaths) ([7]; Hunt & Hess grade IV°): 3.8
Mean mRS >3 months ([7]; Hunt & Hess grade IV°): 1.6
Mean NIH >3 months (without deaths) ([7]; Hunt & Hess grade I°): 0
Mean mRS >3 months ([7]; Hunt & Hess grade I°): 1.75
Mean NIH >3 months (without deaths) ([7]; Hunt & Hess grade V°): 17
Mean mRS >3 months ([7]; Hunt & Hess grade V°): 4
clinical condition and long term outcome in the follow up ([7]; SAH-survivors): impressive improvement of clinical condition and long term outcome
clinical deterioration ([7]; SAH-survivors): no clinical deterioration
patients partly in work process again or to be reintegrated soon ([7]; follow up, normally approx. 5% return to work): 5/27

COCCOC(=O)C1=C(C)NC(C)=C(C(=O)OC(C)C)C1c1cccc([N+](=O)[O-])c1 (centres unmarked) [Nimodipine, 1,4-dihydro-2,6-dimethyl-4-(3-nitrophenyl)-3,5-pyridinedicarboxylic acid 2-methoxyethyl 1-methylethyl ester]
associated DINDs [8]: 27-37%
spasm-associated infarcts [8]: 20-30%
spasm-associated infarcts detected by advanced CT-technique [8]: up to 50%
spasm-related mortality and high-grade morbidity [8]: 30-40%
patients who developed vasospasm associated brain infarctions / patients of the group ([4]; all Hunt & Hess grades): 25/49
Mean NIH >3 months (without deaths) ([7]; Hunt & Hess grade III°): 10.6
Mean mRS >3 months ([7]; Hunt & Hess grade III°): 3.75
Mean NIH >3 months (without deaths) ([7]; Hunt & Hess grade II°): 0
Mean mRS >3 months ([7]; Hunt & Hess grade II°): 3
Mean NIH >3 months (without deaths) ([7]; Hunt & Hess grade IV°): 12.3
Mean mRS >3 months ([7]; Hunt & Hess grade IV°): 4.3
Mean NIH >3 months (without deaths) ([7]; Hunt & Hess grade I°): 0.5
Mean mRS >3 months ([7]; Hunt & Hess grade I°): 1.6
Mean NIH >3 months (without deaths) ([7]; Hunt & Hess grade V°): 38 (2 × exitus)
Mean mRS >3 months ([7]; Hunt & Hess grade V°): 5.7

N=c1c[n+](N2CCOCC2)[n-]o1 [SIN-1, 3-morpholinosydnonimine]
thrombus formation [9]: antithrombotic effect
plasma protein binding [10]: no relevant plasma protein binding
CBF [11]: increased CBF
recovery of cerebral blood flow (CBF) ([12]; after MCA occlusion): enhanced the recovery of cerebral blood flow (CBF)
size of the infarct ([12]; after MCA occlusion): reduced the size of the infarct
infarct [12, 13]: reduced the infarct
recovery of CBF and EEG amplitude [12, 13]: enhanced the recovery of CBF and EEG amplitude

Reference: patent US20130252959A1, “NITRIC OXIDE DONORS IN THERAPY OF NITRIC OXIDE DEFICIENCY-INDUCED DISTURBANCES OF CEREBRAL MICROCIRCULATION” (West-Falische Wilhelms-Universitat Munster, priority 2010, published 2013)
